Reference: ChEMBL document CHEMBL3091444, “5-Chlorothiophene-2-carboxylic acid [(S)-2-[2-methyl-3-(2-oxopyrrolidin-1-yl)benzenesulfonylamino]-3-(4-methylpiperazin-1-yl)-3-oxopropyl]amide (SAR107375), a selective and potent orally active dual thrombin and factor Xa inhibitor” (J Med Chem, 2013)

Columns and labels:
[1] = Metabolic stability in Swiss CD1 mouse liver microsomes at 5 uM after 20 mins; format: ADME, Microsome; details: read-out: Stability
[2] = Metabolic stability in human liver microsomes at 5 uM after 20 mins; format: ADME; details: read-out: Stability
[3] = Metabolic stability in Sprague-Dawley rat liver microsomes at 5 uM after 20 mins; format: ADME; details: read-out: Stability
[4] = Permeability of the compound across human Caco2 cells; format: ADME, cell-based; details: Caco-2, read-out: permeability
[5] = Half life in dog at 10 mg/kg, po; format: ADME, organism-based, Canis lupus familiaris; parameters: dose 10 mg/kg, route oral; details: in vivo
[6] = Oral bioavailability in Sprague-Dawley rat at 10 mg/kg; format: ADME, organism-based; details: in vivo
[7] = AUC in Sprague-Dawley rat at 10 mg/kg, po; format: ADME, organism-based; parameters: dose 10 mg/kg, route oral; details: plasma
[8] = Tmax in Sprague-Dawley rat at 10 mg/kg, po; format: ADME, organism-based; parameters: dose 10 mg/kg, route oral; details: in vivo
[9] = Volume of distribution at steady state in Sprague-Dawley rat at 3 mg/kg, iv; format: ADME, organism-based; parameters: dose 3 mg/kg, route intravenous; details: in vivo, read-out: Vdss
[10] = AUC in dog at 3 mg/kg, iv; format: ADME, organism-based, Canis lupus familiaris; parameters: dose 3 mg/kg, route intravenous; details: plasma
[11] = Clearance in Sprague-Dawley rat at 3 mg/kg, iv; format: ADME, organism-based; parameters: dose 3 mg/kg, route intravenous; details: in vivo
[12] = Half life in Sprague-Dawley rat at 3 mg/kg, iv; format: ADME, organism-based; parameters: dose 3 mg/kg, route intravenous; details: in vivo
[13] = Half life in dog at 3 mg/kg, iv; format: ADME, organism-based, Canis lupus familiaris; parameters: dose 3 mg/kg, route intravenous; details: in vivo
[14] = Cmax in dog at 10 mg/kg, po; format: ADME, organism-based, Canis lupus familiaris; parameters: dose 10 mg/kg, route oral; details: in vivo
[15] = Oral bioavailability in dog at 10 mg/kg; format: ADME, organism-based, Canis lupus familiaris; details: in vivo
[16] = Clearance in dog at 3 mg/kg, iv; format: ADME, organism-based, Canis lupus familiaris; parameters: dose 3 mg/kg, route intravenous; details: in vivo
[17] = Tmax in dog at 10 mg/kg, po; format: ADME, organism-based, Canis lupus familiaris; parameters: dose 10 mg/kg, route oral; details: in vivo
[18] = Volume of distribution at steady state in dog at 3 mg/kg, iv; format: ADME, organism-based, Canis lupus familiaris; parameters: dose 3 mg/kg, route intravenous; details: in vivo, read-out: Vdss
[19] = Cmax in dog at 3 mg/kg, iv; format: ADME, organism-based, Canis lupus familiaris; parameters: dose 3 mg/kg, route intravenous; details: in vivo
[20] = Cmax in Sprague-Dawley rat at 3 mg/kg, iv; format: ADME, organism-based; parameters: dose 3 mg/kg, route intravenous; details: in vivo
[21] = AUC in dog at 10 mg/kg, po; format: ADME, organism-based, Canis lupus familiaris; parameters: dose 10 mg/kg, route oral; details: plasma
[22] = Half life in Sprague-Dawley rat at 10 mg/kg, po; format: ADME, organism-based; parameters: dose 10 mg/kg, route oral; details: in vivo
[23] = AUC in Sprague-Dawley rat at 3 mg/kg, iv; format: ADME, organism-based; parameters: dose 3 mg/kg, route intravenous; details: plasma
[24] = Cmax in Sprague-Dawley rat at 10 mg/kg, po; format: ADME, organism-based; parameters: dose 10 mg/kg, route oral; details: in vivo
[25] = test system: Liver microsome; assay: Drug metabolism in human liver microsomes assessed as oxidation; format: ADME

## Cc1c(N2CCOCC2=O)cccc1S(=O)(=O)N[C@@H](CNC(=O)c1ccc(Cl)s1)C(=O)N1CCN(C)CC1
[1]
  remaining at 20 min, 5 µM: 26%
[2]
  remaining at 20 min, 5 µM: 52%
[3]
  remaining at 20 min, 5 µM: 0%

## Cc1c(N2CCOCC2=O)cccc1S(=O)(=O)N[C@@H](CNC(=O)c1ccc(Cl)s1)C(=O)N1CCOC[C@@H]1C
[1]
  remaining at 20 min, 5 µM: 91%
[2]
  remaining at 20 min, 5 µM: 74%
[3]
  remaining at 20 min, 5 µM: 58%

## CCc1c(N2CCOCC2=O)cccc1S(=O)(=O)N[C@@H](CNC(=O)c1ccc(Cl)s1)C(=O)N1CCC(OC)CC1
[1]
  remaining at 20 min, 5 µM: 98%
[2]
  remaining at 20 min, 5 µM: 99%
[3]
  remaining at 20 min, 5 µM: 99%

## CCc1c(N2CCOCC2=O)cccc1S(=O)(=O)N[C@@H](CNC(=O)c1ccc(Cl)s1)C(=O)N1CCC(O)CC1
[1]
  remaining at 20 min, 5 µM: 68%
[2]
  remaining at 20 min, 5 µM: 80%
[3]
  remaining at 20 min, 5 µM: 51%

## O=C(NC[C@H](NS(=O)(=O)c1cccc(N2CCOCC2=O)c1Cl)C(=O)N1CCC(O)CC1)c1ccc(Cl)s1
[1]
  remaining at 20 min, 5 µM: 18%
[2]
  remaining at 20 min, 5 µM: 38%
[3]
  remaining at 20 min, 5 µM: 58%

## CN1CCN(C(=O)[C@H](CNC(=O)c2ccc(Cl)s2)NS(=O)(=O)c2cccc(N3CCOCC3=O)c2Cl)CC1
[1]
  remaining at 20 min, 5 µM: 69%
[2]
  remaining at 20 min, 5 µM: 72%
[3]
  remaining at 20 min, 5 µM: 63%

## CN1CCN(C(=O)[C@H](CNC(=O)c2ccc(Cl)s2)NS(=O)(=O)c2cccc(N3CCCC3=O)c2Cl)CC1
[1]
  remaining at 20 min, 5 µM: 45%
[2]
  remaining at 20 min, 5 µM: 59%
[3]
  remaining at 20 min, 5 µM: 54%

## Cc1c(-c2ccccn2)cccc1S(=O)(=O)N[C@@H](CCCc1ccc(N)cn1)C(=O)N1CCC(=C(F)F)CC1
[4]
  Papp: 9.6 ×10⁻⁶ cm/s

## Cc1c(N2CCCC2=O)cccc1S(=O)(=O)N[C@@H](CNC(=O)c1ccc(Cl)s1)C(=O)N1CCN(C)CC1.Cl
[5]
  half-life: 2.4 h
[6]
  bioavailability: 21%
[7]
  AUC: 360 ng·h/mL
[8]
  Tmax: 0.25 h
[1]
  remaining at 20 min, 5 µM: 25%
[9]
  Vd: 4.6 L/kg
[2]
  remaining at 20 min, 5 µM: 34%
[10]
  AUC: 1800 ng·h/mL
[11]
  clearance: 96.7 mL/min/kg
[12]
  half-life: 6.6 h
[13]
  half-life: 1.1 h
[14]
  Cmax: 1530 ng/mL
[15]
  bioavailability: 47%
[16]
  clearance: 28.3 mL/min/kg
[17]
  Tmax: 0.5 h
[18]
  Vd: 1.5 L/kg
[19]
  Cmax: 3500 ng/mL
[20]
  Cmax: 1300 ng/mL
[21]
  AUC: 2600 ng·h/mL
[22]
  half-life: 6.2 h
[23]
  AUC: 510 ng·h/mL
[3]
  remaining at 20 min, 5 µM: 25%
[24]
  Cmax: 154 ng/mL

## CCc1c(-c2ccccn2)cccc1S(=O)(=O)N[C@@H](CNC(=O)c1ccc(Cl)s1)C(=O)N1CCOC[C@@H]1C
[25]
  Drug metabolism: Active
[1]
  remaining at 20 min, 5 µM: 99%
[2]
  remaining at 20 min, 5 µM: 99%
[3]
  remaining at 20 min, 5 µM: 65%

## CCc1c(N2CCOCC2=O)cccc1S(=O)(=O)N[C@@H](CNC(=O)c1ccc(Cl)s1)C(=O)N1CCOC[C@@H]1C
[1]
  remaining at 20 min, 5 µM: 99%
[2]
  remaining at 20 min, 5 µM: 99%
[3]
  remaining at 20 min, 5 µM: 99%
